The text below walks through data of publication PMC8073907, “Peptide targeting of lysophosphatidylinositol-sensing GPR55 for osteoclastogenesis tuning” (Cell Communication and Signaling : CCS, 2021).

Test [1] has as its system endogenous GPR55 in RAW264.7 cells. Briefly: Intracellular Ca2+ assay in siRNA-interfered RAW264.7 cells. It is filed as cell-based, murine. The conditions noted are these: si-NT cells, 72 h of interference; 10 µM 16:0 LPI, within the first minute. As for the experimental part: For transient interference of Gpr55, RAW264.7 cells were plated at 6 × 10^5 cells/well in six-well plates in growth medium without antibiotics. Twenty-four hours later, the cells were transfected with 250 pmol/well non-targeting small-interfering (si)RNAs (si-NT; siGENOME siRNA Pool #2; D-001206-14; Dharmacon, Chicago, IL, USA) or Gpr55-specific siRNAs (si-GPR55; siGENOME mouse GPR55 SMART pool; M-043590-01; Dharmacon) using Lipofectamine LTX and Plus Reagent, according to the manufacturer instructions. Twenty-four hours later, the cells were plated for the different assays or for RNA extraction. The efficiency of interference was monitored by real-time PCR after 72 h of interference, using the primers listed in the Additional file 1: Table S1. β2-microglobulin was followed as a housekeeping gene.
After 48 h of siRNA treatments, the RAW264.7 cells were detached with 600 μM EDTA in PBS, and plated at a density of 8 × 10^4 cells/well in 96-well plates. […] All the subsequent incubation steps were performed at 37 °C within the Fluoroskan Ascent FL (Thermo Fisher Scientific, Waltham, MA USA) and the fluorescence recorded with an Ex 485/ Em 520 every 3 s. The baseline fluorescence was monitored for 5 min, then 50 μL assay buffer (0.01% faf-BSA, 20 mM HEPES in HBSS^++) was added without or with 10 μM 16:0 LPI, and fluorescence was recorded for a further 5 min. […]

Test [2] relates to Gpr55 mRNA in RAW264.7 cells. Put plainly: Modulation of Gpr55 mRNA levels by receptor ligands in RANKL-treated RAW264.7 cells. In kind it is cell-based, murine. The conditions noted are these: 72 h; 0.5 μM ML-191, 0.5 μM CBD, 1 μM soybean LPI; versus RANKL alone. As for the experimental part:
Total RNA was extracted using RNeasy isolation kits, cDNAs were obtained using QuantiTect Reverse Transcription kits, and real-time PCRs were performed with QuantiTect SYBR Green PCR kits (all from Qiagen, Hilden, Germany), according to the manufacturer instructions. The primers used for the real-time PCRs and their annealing temperatures are listed in the Additional file 1: Table S1. Human hypoxanthine phosphoribosyltransferase 1 (HPRT1) or murine β2-microglobulin were followed as housekeeping genes. The real-time PCR programme consisted of an initial 15 min at 95 °C, and then 45 cycles as follows: 94 °C for 15 s, annealing temperature of each primer for 30 s, and 72 °C for 30 s. The real-time PCR machine used was a LightCycler 480 Instrument II (Roche, Indianapolis, IN, USA).
For the osteoclastogenesis in-vitro assay, RAW264.7 cells were plated in differentiation medium (α-MEM with 10% heat-inactivated FBS, 2 mM L-glutamine, 100 U/mL penicillin, and 100 ug/mL streptomycin) at a density of 5 × 10^3 cells/well in 24-well plates on coverslips for morphological analysis, or at 2 × 10^4 cells/well in six-well plates for RNA extraction. Twenty-four hours later and every 48 h, the medium was replaced and the cells were treated with 15–30 ng/mL RANKL with DMSO and/or PBS as carriers, or with GPR55 antagonists/ agonists (0.5 µM ML-191, 30 µM O1918, 0.5 µM CBD, 0.5 μM CID16020046 1 µM soybean LPI, 1 μM ML-184), or with the peptides (150 nM peptide-P1; or the irrelevant peptide, Irr_P). Twenty-four hours after the last addition, the cells were fixed with 4% paraformaldehyde for morphological analyses or harvested for RNA extraction (see above).

For the substance lysophosphatidylinositol [LPI], the “mean increase of intracellular Ca2+ over basal levels” value in test [1] is reported as ~ 40 nM. Besides, the “further enhancement of RANKL-stimulated Gpr55 mRNA levels” value in test [2] was 0.5 -fold.
